Experimental data reported in patent US20260167541A1, “BIOCIDAL CONTROL IN AQUEOUS MEMBRANE SEPARATION SYSTEMS” (Albemarle Corporation, priority 2023, published 2026).

Assays:
biofilm = assay: Biofilm coupon test with modified Robbins device (ATP, RLU); assay type: cell-based, bacteria; conditions: water upstream of and near the RO membrane; average of 3 or 4 coupons
Method: (§1) Marsh water was fed into a storage tank via a 1200-foot long (365 m) hose. A biocide was added to the hose at a point 20 feet (6.1 m) before the hose connection to the storage tank. Water was fed from the storage tank to a reverse osmosis (RO) system equipped with an ultrafiltration (UF) membrane upstream of an RO membrane. In this system, the UF membrane was a non-protected membrane and the RO membrane was a protected membrane. An oxidation-reduction potential (ORP) electrode was in the water at a point upstream of and near the RO membrane, and the ORP electrode was connected to an ORP controller unit (ORP electrode: RD2, Hach Company). Measurements from the ORP were monitored, and the reducing agent was pumped into the RO system downstream of the ORP electrode as needed as indicated by the ORP reading from the ORP electrode. […]
(§2) The water was sampled at various times upstream of and near the UF membrane, and the water was also sampled at various times upstream of and near the RO membrane. […] Functionality of the RO membrane, types of microbes at RO membrane after treatment, biocide efficacy on microbes in water, and biocide efficacy for biofilm growth were determined. […]

Aerobic bacteria = assay: Types of microbes at RO membrane after treatment (membrane autopsy): aerobic bacteria; assay type: cell-based; conditions: on RO membrane after 30 days of exposure to the biocide
Method: as §1, §2

Yeast/mold = assay: Types of microbes at RO membrane after treatment (membrane autopsy): yeast/mold; assay type: cell-based; conditions: on RO membrane after 30 days of exposure to the biocide
Method: as §1, §2

microbes in water = assay: Biocide efficacy on microbes in water (planktonic biocidal reduction, marsh water); assay type: cell-based
Method: Marsh water was fed into a storage tank via a 1200-foot long (365 m) hose. A biocide was added to the hose at a point 20 feet (6.1 m) before the hose connection to the storage tank. Water was fed from the storage tank to a reverse osmosis (RO) system equipped with an ultrafiltration (UF) membrane upstream of an RO membrane. In this system, the UF membrane was a non-protected membrane and the RO membrane was a protected membrane. An oxidation-reduction potential (ORP) electrode was in the water at a point upstream of and near the RO membrane, and the ORP electrode was connected to an ORP controller unit (ORP electrode: RD2, Hach Company). Measurements from the ORP were monitored, and the reducing agent was pumped into the RO system downstream of the ORP electrode as needed as indicated by the ORP reading from the ORP electrode.
The biocides tested were bleach, 1,3-dibromo-5,5-dimethylhydantoin (Br2DMH; Albemarle Corporation), and an aqueous solution formed from bromine chloride and sulfamic acid containing over 50,000 ppm of active halogen having a pH in the range of 13 to 14 (BrCl/sulfamic acid; STABROM® 909 biocide, Albemarle Corporation). The reducing agent used with each biocide was […].
The water was sampled at various times upstream of and near the UF membrane, and the water was also sampled at various times upstream of and near the RO membrane. The duration of testing for each biocide was approximately 30 days. Functionality of the RO membrane, types of microbes at RO membrane after treatment, biocide efficacy on microbes in water, and biocide efficacy for biofilm growth were determined.
For the data in Table 3, the water was sampled upstream of and near the UF membrane, and upstream of and near the RO membrane The data in Table 3 are an average of samples from several days for planktonic biocidal reduction.

[1] = untreated water to RO feed water

SMILES: CC1(C)C(=O)N(Br)C(=O)N1Br [Br2DMH, 1,3-dibromo-5,5-dimethylhydantoin]
- ATP on Polyamide coupon (biofilm): 5825 RLU
- Aerobic bacteria rating (Aerobic bacteria): High (10,000 to 1,000,000)
- Yeast/mold rating (Yeast/mold): Low (0 to 100)
- Log reduction, total (untreated to RO) (microbes in water; [1]): 2.1
- Reduction, total (untreated to RO) (microbes in water; [1]): 99.2%
- RO feed water (microbes in water; water sampled upstream of and near the RO membrane, average of samples from several days): 2.2 log cfu/mL
- UF feed water (microbes in water; water sampled upstream of and near the UF membrane, average of samples from several days): 3.1 log cfu/mL
